Measurements from PMC11605156, “Triterpenoids from Ganoderma lucidum inhibit cytochrome P450 enzymes interfering with the metabolic process of specific clinical drugs” (Frontiers in Pharmacology, 2024).

Experiments:
[1] = biological target: T1, CYP2B6 (Homo sapiens, UniProt P20813); experiment: CYP2B6 inhibition, probe/drug metabolism in human liver microsomes; conditions: bupropion 75 μM, 30 min; for activity at 30 min: human, human liver microsomes, pH 7.4, probe bupropion 75 μM, Residual activity (%) CYP2B6, HLM 0.5 mg/mL
T1 sequence (P20813 1-491): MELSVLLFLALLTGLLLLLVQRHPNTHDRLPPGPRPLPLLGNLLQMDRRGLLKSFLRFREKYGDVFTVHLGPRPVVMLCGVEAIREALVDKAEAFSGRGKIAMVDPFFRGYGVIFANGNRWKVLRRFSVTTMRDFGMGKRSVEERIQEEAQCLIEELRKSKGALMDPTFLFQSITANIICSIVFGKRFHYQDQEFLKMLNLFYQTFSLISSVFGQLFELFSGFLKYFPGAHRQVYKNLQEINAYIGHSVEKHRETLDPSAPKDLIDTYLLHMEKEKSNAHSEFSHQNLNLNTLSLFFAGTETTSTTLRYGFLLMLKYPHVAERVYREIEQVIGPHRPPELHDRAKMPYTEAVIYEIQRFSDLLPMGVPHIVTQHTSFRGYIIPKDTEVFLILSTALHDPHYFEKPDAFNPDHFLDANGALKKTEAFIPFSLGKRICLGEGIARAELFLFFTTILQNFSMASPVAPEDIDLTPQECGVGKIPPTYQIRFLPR
Description: (§1) The total volume of the in vitro metabolic incubation system is 200 μL. The probe substrate concentration in the system is shown in Supplementary Table S1. […] The reaction sample was preheated in a constant temperature mixer at 37°C. Then NADP^+ was added to the system to initiate the reaction. The reaction time is 30 min, and 100 μL acetonitrile will be added on time to quickly terminate the reaction, followed by centrifugation at 4°C and 20,000 g for 20 min. The supernatant was analyzed using liquid chromatography tandem mass spectrometry (LC-MS/MS), and the activity of CYP enzymes was evaluated by the generation of probe metabolites. The mass spectrometry information of probe substrates is shown in Supplementary Table S3.
(§2) The isolated triterpenoids (1–66) were used to establish a compounds library. The inhibitory effects of 66 triterpenoids from G. lucidum on seven subtypes of CYP enzymes (CYP1A2, 2A6, 2D6, 2B6, 2C9, 2C19, 3A4) were evaluated followed the above-mentioned experimental procedures.
(§3) For 16 clinical drugs metabolized by CYP enzymes, potential DDI studies were conducted on triterpenoids (6, 25) of G. lucidum, and IC50 values were measured.
(§4) Clinical drugs: Phenacetin, melatonin, clozapine and riluzole are metabolized by CYP1A2. Bupropion, artemisinin, efavirenz and sertraline are metabolized by CYP2B6. Diclofenac, valsartan, glimepiride and glibenclamide are metabolized by CYP2C9. Midazolam, imatinib, simvastatin and diltiazem are metabolized by CYP3A4.
(§5) Table S1. The information of probes for CYPs activity assay
(§6) Table S2. Information of clinical drugs

[2] = biological target: T2, CYP1A2 (Homo sapiens, UniProt P05177); experiment: CYP1A2 inhibition, probe/drug metabolism in human liver microsomes (LC-MS/MS); conditions: for activity at 30 min: Residual activity (%) CYP1A2, HLM 0.5 mg/mL; for activity at 30 min / Residual activity (%) CYP1A2: phenacetin 40 μM; for Residual activity (%) CYP1A2: HLM 0.5 mg/mL
T2 sequence (P05177 1-516): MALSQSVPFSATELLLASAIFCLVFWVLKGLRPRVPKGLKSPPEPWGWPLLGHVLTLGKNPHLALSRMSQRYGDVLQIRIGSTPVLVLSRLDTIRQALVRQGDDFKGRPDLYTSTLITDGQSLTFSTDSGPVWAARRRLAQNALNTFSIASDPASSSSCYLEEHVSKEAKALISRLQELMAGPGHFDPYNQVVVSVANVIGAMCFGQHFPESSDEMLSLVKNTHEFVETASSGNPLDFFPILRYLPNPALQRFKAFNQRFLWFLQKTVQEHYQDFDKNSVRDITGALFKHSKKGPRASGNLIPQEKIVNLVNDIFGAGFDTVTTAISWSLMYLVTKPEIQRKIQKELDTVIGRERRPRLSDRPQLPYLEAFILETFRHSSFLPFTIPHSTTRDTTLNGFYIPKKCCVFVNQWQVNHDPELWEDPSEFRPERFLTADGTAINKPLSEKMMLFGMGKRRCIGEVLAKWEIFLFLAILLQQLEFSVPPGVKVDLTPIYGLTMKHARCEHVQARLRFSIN
Description: as §1, §2, §3, §4, §5, §6

[3] = biological target: CYP3A4 (Homo sapiens, UniProt P08684); experiment: CYP3A4 inhibition, probe/drug metabolism in human liver microsomes; conditions: midazolam 5 μM, 30 min; for activity at 30 min: human, human liver microsomes, pH 7.4, probe midazolam 5 μM, Residual activity (%) CYP3A4, HLM 0.5 mg/mL
Description: as §1, §2, §3, §4, §5, §6

[4] = biological target: CYP2C19 (Homo sapiens, UniProt P33261); experiment: CYP2C19 inhibition, S-mephenytoin probe in human liver microsomes; conditions: S-mephenytoin 50 μM, 30 min; for activity at 30 min: human, human liver microsomes, pH 7.4, probe S-mephenytoin 50 μM, Residual activity (%) CYP2C19, HLM 0.5 mg/mL
Description: as §1, §2, §5

[5] = biological target: T3, CYP2A6 (Homo sapiens, UniProt P11509); experiment: CYP2A6 inhibition, coumarin probe in human liver microsomes; conditions: for activity at 30 min: human, human liver microsomes, pH 7.4, probe coumarin 2 μM, Residual activity (%) CYP2A6, HLM 0.5 mg/mL
T3 sequence (P11509 1-494): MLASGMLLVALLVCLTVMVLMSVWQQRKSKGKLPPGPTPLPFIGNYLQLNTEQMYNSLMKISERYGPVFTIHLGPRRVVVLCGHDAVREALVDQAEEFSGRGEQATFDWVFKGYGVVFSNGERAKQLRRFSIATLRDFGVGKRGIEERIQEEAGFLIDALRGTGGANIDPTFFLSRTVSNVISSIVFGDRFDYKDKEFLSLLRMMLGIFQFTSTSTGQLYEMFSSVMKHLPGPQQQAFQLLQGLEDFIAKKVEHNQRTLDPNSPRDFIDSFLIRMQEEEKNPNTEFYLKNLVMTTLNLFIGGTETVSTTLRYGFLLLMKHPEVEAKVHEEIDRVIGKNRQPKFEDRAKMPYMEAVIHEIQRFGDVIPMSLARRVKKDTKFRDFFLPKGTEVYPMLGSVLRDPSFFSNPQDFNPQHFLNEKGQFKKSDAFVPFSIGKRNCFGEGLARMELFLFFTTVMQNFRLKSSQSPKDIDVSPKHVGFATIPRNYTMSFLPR
Description: as §1, §2, §5

[6] = biological target: CYP2D6 (Homo sapiens, UniProt P10635); experiment: CYP2D6 inhibition, dextromethorphan probe in human liver microsomes; conditions: for activity at 30 min: human, human liver microsomes, pH 7.4, probe dextromethorphan 5 μM, Residual activity (%) CYP2D6, HLM 0.5 mg/mL
Description: as §1, §2, §5

[7] = biological target: CYP2C9 (Homo sapiens, UniProt P11712); experiment: CYP2C9 inhibition, probe/drug metabolism in human liver microsomes; conditions: diclofenac 4 μM, 30 min; for activity at 30 min: human, human liver microsomes, pH 7.4, probe diclofenac 4 μM, Residual activity (%) CYP2C9, HLM 0.5 mg/mL
Description: as §1, §2, §3, §4, §5, §6

[8] = IC50 against CYP 1A2, substrate phenacetin 40 μM, HLM
[9] = human, human liver microsomes, pH 7.4, probe phenacetin 40 μM, 30 min

Chain of CYP2C9 (P11712 whole entry): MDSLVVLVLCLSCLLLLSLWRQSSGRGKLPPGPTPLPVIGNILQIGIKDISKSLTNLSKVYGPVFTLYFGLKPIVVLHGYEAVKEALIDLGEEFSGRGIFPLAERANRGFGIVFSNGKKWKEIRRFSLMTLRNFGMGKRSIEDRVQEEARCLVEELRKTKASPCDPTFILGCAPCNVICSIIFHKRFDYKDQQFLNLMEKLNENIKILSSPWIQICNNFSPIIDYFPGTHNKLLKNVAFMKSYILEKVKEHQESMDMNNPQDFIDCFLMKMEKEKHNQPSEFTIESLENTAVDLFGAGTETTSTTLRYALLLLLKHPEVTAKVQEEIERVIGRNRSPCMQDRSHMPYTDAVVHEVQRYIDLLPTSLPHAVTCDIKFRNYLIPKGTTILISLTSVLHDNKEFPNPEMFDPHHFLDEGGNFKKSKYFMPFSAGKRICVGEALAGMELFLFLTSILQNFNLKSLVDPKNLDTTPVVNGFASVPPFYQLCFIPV
Chain of CYP2D6 (P10635 whole entry): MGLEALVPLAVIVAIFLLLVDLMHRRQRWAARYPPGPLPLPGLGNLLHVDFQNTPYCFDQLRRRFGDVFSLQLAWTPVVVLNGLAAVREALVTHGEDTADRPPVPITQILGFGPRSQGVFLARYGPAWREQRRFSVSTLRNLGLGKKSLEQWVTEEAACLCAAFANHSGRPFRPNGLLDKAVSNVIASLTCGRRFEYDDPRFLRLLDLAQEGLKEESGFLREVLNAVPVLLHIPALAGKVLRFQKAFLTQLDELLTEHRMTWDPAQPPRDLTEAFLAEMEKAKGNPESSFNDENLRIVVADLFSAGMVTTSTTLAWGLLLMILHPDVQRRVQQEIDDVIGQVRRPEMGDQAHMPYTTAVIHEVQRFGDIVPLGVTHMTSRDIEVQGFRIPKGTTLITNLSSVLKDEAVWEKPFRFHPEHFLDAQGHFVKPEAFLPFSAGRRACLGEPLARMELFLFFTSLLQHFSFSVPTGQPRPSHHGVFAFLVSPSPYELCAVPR
Chain of CYP3A4 (P08684 whole entry): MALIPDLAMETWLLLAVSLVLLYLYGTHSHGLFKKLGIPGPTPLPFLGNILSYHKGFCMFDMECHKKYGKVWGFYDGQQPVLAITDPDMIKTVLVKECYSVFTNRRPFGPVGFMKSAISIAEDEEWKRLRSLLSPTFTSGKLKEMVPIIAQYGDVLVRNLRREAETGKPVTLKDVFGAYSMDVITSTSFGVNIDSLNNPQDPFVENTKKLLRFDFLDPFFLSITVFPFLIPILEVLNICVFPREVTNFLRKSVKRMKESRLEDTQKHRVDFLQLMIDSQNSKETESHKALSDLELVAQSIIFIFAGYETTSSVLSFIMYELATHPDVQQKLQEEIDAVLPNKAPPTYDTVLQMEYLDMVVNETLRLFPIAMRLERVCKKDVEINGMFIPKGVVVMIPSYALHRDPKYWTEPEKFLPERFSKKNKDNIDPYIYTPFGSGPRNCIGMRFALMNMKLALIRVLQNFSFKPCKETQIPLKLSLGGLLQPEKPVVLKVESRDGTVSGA
Chain of CYP2C19 (P33261 whole entry): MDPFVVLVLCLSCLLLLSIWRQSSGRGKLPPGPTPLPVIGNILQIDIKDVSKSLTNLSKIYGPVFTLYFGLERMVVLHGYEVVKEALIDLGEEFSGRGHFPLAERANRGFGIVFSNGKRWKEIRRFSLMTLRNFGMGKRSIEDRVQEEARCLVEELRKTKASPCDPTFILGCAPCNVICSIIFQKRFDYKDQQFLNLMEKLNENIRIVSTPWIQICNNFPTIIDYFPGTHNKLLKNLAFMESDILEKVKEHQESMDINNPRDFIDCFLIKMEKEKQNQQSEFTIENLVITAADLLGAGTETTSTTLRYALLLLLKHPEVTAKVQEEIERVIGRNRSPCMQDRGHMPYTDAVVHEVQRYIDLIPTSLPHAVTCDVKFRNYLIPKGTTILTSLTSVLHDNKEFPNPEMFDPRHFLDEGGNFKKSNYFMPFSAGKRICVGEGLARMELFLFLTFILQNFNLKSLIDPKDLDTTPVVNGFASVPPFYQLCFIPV

| Compound | activity at 30 min [1] [%] | IC50 [2, 8] [µM] | activity at 30 min [2, 9] [%] | activity at 30 min [3] [%] | activity at 30 min [4] [%] | activity at 30 min [5] [%] | activity at 30 min [6] [%] | activity at 30 min [7] [%] | IC50 ([2]; IC50 against metabolism of clozapine mediated by CYP1A2, substrate clozapine 10 μM, 20 min) [µM] | IC50 ([2]; IC50 against metabolism of melatonin mediated by CYP1A2, substrate melatonin 5 μM, 30 min) [µM] | IC50 ([2]; IC50 against metabolism of riluzole mediated by CYP1A2, substrate riluzole 5 μM, 60 min) [µM] | IC50 ([2]; IC50 values, metabolism of four drugs mediated by CYP 1A2, range over phenacetin, riluzole, clozapine, melatonin) [µM] | Residual activity (%) CYP1A2 ([2]; 30 min) [%] | Residual activity (%) CYP2B6 ([1]; HLM 0.5 mg/mL) [%] | Residual activity (%) CYP3A4 ([3]; HLM 0.5 mg/mL) [%] | Residual activity (%) CYP2C19 ([4]; HLM 0.5 mg/mL) [%] | Residual activity (%) CYP2A6 ([5]; HLM 0.5 mg/mL, coumarin 2 μM, 30 min) [%] | Residual activity (%) CYP2D6 ([6]; HLM 0.5 mg/mL, dextromethorphan 5 μM, 30 min) [%] | Residual activity (%) CYP2C9 ([7]; HLM 0.5 mg/mL) [%] | IC50 at 30 min ([2]; human, human liver microsomes, pH 7.4, probe phenacetin 40 μM, IC50 against CYP 1A2, substrate phenacetin 40 μM, HLM) [µM] |
| --- | --- | --- | --- | --- | --- | --- | --- | --- | --- | --- | --- | --- | --- | --- | --- | --- | --- | --- | --- | --- |
| CC(=CC(=O)CC(C)C(=O)O)C1CC(=O)C2(C)C3=C(C(=O)C(O)C12C)C1(C)CCC(O)C(C)(C)C1CC3=O (stereo not drawn) [Compound 17] | 76.6 ± 7.68 | 21.8 ± 1.15 | 54.4 ± 8.91 | 97.6 ± 2.29 | 85.5 ± 2.57 | 91.89 ± 0.88 | 99.4 ± 3.9 | 90 ± 1.36 | – | – | – | – | – | – | – | – | – | – | – | – |
| CC1(C)CCC2(C(=O)O)CCC3(C)C(=CC(=O)C4C5(C)CCC(O)C(C)(C)C5CCC43C)C2C1 (stereo not drawn) [Compound 37] | 94.3 ± 3.45 | – | 88 ± 3.49 | 60.1 ± 3.57 | 97.6 ± 4.86 | 104 ± 1.4 | 104 ± 3.22 | 94.8 ± 3.33 | – | – | – | – | – | – | – | – | – | – | – | – |
| CC(=CC(=O)CC(C)C(=O)O)C1CC(=O)C2(C)C3=C(C(=O)C(O)C12C)C1(C)CCC(=O)C(C)(CO)C1CC3O (stereo not drawn) [Compound 6, ganoderica F] | 84.6 ± 5.76 | 9.62 ± 2.03 | 28 ± 1.5 | 72.57 ± 0.19 | 58.5 ± 8.25 | 75.3 ± 1.29 | 66.7 ± 6.29 | 90.5 ± 3.9 | 12.9 ± 1.11 | 19 ± 1.68 | 14.8 ± 2.15 | 9.62 to 19 | – | – | – | – | – | – | – | – |
| CC(=O)OC1C(=O)C2=C(C(=O)CC3C(C)(C)C(=O)CCC23C)C2(C)C(=O)CC(C(C)CC(=O)CC(C)C(=O)O)C12C (stereo not drawn) [Compound 9] | 94.3 ± 1.83 | – | – | 93.7 ± 4.04 | 105 ± 6.46 | 91.5 ± 2.1 | 94 ± 5.67 | 77 ± 5.67 | – | – | – | – | 89.44±0.96 | – | – | – | – | – | – | – |
| CC(=O)OC1C(=O)C2=C(C(=O)CC3C2(C)CCC(O)C3(C)C)C2(C)C(=O)CC(C3(C)CCC(=O)O3)C12C (stereo not drawn) [Compound 56] | 84.1 ± 0.94 | 34.2 ± 6.9 | 56 ± 0.69 | 82.8 ± 1.1 | 109 ± 6.43 | 72.3 ± 1.11 | 86.9 ± 1.32 | 92.5 ± 0.99 | – | – | – | – | – | – | – | – | – | – | – | – |
| CC(CC(=O)CC(C)C1CC(=O)C2(C)C3=C(C(=O)CC12C)C1(C)CCC(=O)C(C)(CO)C1CC3O)C(=O)O (stereo not drawn) [Compound 8] | 91.6 ± 8.64 | 11.3 ± 0.31 | 30.2 ± 3.05 | 90.8 ± 3.82 | 68.6 ± 7.25 | 79.1 ± 0.81 | 76.9 ± 0.9 | 94.8 ± 5.64 | – | – | – | – | – | – | – | – | – | – | – | – |
| CC(=O)OC1C(=O)C2=C(C(O)CC3C2(C)CCC(O)C3(C)C)C2(C)C(=O)CC(C(C)=CC(=O)CC(C)C(=O)O)C12C (stereo not drawn) [Compound 7] | 90.6 ± 2.12 | 12.8 ± 1.47 | 32.5 ± 1 | 94.6 ± 1.15 | 74.81 ± 0.08 | 88.05 ± 0.74 | 104 ± 4.79 | 90 ± 1.41 | – | – | – | – | – | – | – | – | – | – | – | – |
| CC(=O)OC1C(=O)C2=C(C(=O)CC3C(C)(C)C(=O)CCC23C)C2(C)C(=O)CC(C(C)CC(=O)CC(C)C(=O)O)C12C (stereo not drawn) [Compound 50] | – | – | – | – | – | – | – | – | – | – | – | – | 62.18±2.53 | 77.48±4.68 | 98.83±1.66 | 116.59±7.39 | 89.71±3.49 | 93.94±6.92 | 96.49±3.97 | – |
| CC(CC(=O)CC(C)C1CC(O)C2(C)C3=C(C(=O)CC12C)C1(C)CCC(=O)C(C)(C)C1CC3)C(=O)O (stereo not drawn) [Compound 42] | 89.1 ± 3.71 | 21.4 ± 5.21 | 43.8 ± 4.18 | 96.8 ± 4.2 | 79.3 ± 0.38 | 83.7 ± 8.67 | 103 ± 3.3 | 62.8 ± 2.72 | – | – | – | – | – | – | – | – | – | – | – | – |
| CC(=O)OC1C(=O)C2=C(C(=O)CC3C(C)(C)C(=O)CCC23C)C2(C)C(=O)CC(C(C)CC(O)C=C(C)C(=O)O)C12C (stereo not drawn) [Compound 31] | 71.2 ± 4.24 | – | 53.7 ± 1.44 | 104 ± 1.72 | 94.8 ± 4.46 | 86.17 ± 0.44 | 103 ± 3.3 | 80.99 ± 0.51 | – | – | – | – | – | – | – | – | – | – | – | 29 ± 6.91 |
